The source of these data is publication PMC524646 (Journal of Insect Science, 2003).

Data set [1] is classed as physicochemical. The note with it: after attempted synthesis.
The target in data set [2] is T1, Ecdysteroid receptor complexes extracted from BII cells (Drosophila melanogaster, UniProt P34021).
T1 sequence (P34021 1-878): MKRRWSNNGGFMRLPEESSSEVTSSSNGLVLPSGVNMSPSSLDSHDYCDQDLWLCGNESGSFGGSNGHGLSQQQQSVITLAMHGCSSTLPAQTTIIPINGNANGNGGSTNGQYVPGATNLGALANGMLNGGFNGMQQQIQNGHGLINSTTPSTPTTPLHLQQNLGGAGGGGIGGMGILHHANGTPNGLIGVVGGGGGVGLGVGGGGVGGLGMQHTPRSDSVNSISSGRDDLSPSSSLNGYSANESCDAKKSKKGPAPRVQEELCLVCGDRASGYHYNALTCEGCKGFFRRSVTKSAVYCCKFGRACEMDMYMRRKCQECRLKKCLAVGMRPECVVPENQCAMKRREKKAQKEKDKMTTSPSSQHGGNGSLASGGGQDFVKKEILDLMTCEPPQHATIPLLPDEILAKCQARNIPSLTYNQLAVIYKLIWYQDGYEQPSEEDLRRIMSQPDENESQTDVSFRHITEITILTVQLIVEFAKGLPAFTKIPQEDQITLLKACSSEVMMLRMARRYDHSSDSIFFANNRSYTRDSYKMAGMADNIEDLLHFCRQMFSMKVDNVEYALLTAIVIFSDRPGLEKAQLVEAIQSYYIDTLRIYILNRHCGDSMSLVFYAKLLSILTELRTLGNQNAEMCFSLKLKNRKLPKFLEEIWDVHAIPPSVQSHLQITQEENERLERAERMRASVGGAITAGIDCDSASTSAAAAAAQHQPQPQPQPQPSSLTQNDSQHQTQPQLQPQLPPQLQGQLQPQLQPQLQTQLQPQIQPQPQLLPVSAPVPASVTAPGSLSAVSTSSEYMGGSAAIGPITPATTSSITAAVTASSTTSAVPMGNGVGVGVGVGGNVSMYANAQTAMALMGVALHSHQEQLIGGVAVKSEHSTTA
T1 sequence (P20153 1-508 partner): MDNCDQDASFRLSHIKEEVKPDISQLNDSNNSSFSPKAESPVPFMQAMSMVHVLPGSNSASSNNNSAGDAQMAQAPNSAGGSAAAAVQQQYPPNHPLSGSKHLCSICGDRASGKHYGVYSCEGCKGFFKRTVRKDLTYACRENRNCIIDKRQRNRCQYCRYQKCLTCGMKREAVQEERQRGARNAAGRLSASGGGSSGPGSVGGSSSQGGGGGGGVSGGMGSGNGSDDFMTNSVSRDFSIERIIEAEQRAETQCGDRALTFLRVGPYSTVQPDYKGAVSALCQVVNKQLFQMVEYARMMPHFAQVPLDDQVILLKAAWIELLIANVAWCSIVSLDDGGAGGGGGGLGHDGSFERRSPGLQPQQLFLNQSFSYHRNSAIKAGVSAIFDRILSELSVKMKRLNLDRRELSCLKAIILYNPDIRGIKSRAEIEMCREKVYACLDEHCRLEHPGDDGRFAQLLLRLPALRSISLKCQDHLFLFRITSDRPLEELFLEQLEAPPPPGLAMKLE
Kind of data set: Cell-free receptor assay with receptor complexes extracted from BII cells. In kind it is binding. The following applies: ratio of Kd in cell-free BII extract to EC50 in BII bioassay.

In data set [3] the test system is insect EcR proteins when expressed in mammalian cells and partnered by RXR. The note with it: altered ligand specificity and affinity; no reference given; cited from earlier work.
For a further data set, the system named is BII cells. The note with it: ref Dinan, 1985; cited from earlier work.

In the case of `CC(C)(O)CC[C@@H](O)[C@](C)(O)[C@H]1CC[C@@]2(O)C3=CC(=O)[C@@H]4C[C@@H](O)[C@@H](O)C[C@]4(C)[C@H]3[C@H](OC(=O)c3ccccc3)C[C@]12C` [turkesterone 11α-benzoate], in data set [1], the stability of product result was “unstable, degrading rapidly back to turkesterone”.

With `CC(C)(O)CC[C@@H](O)[C@](C)(O)[C@H]1CC[C@@]2(O)C3=CC(=O)[C@@H]4C[C@@H](O)[C@@H](O)C[C@]4(C)[C@H]3[C@H](O)C[C@]12C` [compound 1, turkesterone], the Kd/EC50 entry in data set [2] was “very low”.

Take `CC(C)CC[C@@H](O)[C@](C)(O)[C@H]1CC[C@@]2(O)C3=CC(=O)[C@]4(O)C[C@@H](O)[C@@H](O)C[C@]4(C)[C@H]3[C@H](O)C[C@]12C` [compound 9, muristerone A]: the Kd/EC50 entry in data set [2] is “very low”. The “activity with insect EcR/RXR in mammalian cells” value in data set [3] is “active, but micromolar concentrations are required”.

As to `CC(C)(O)CC[C@@H](O)[C@](C)(O)[C@H]1CC[C@@]2(O)C3=CC(=O)[C@@H]4C[C@@H](O)[C@@H](O)C[C@]4(C)[C@H]3CC[C@]12C` [compound 6, 20-hydroxyecdysone], the “metabolism by BII cells” value with BII cells is “do not metabolise”.

For `CC(C)CC[C@@H](O)[C@](C)(O)[C@H]1CC[C@@]2(O)C3=CC(=O)[C@@H]4C[C@@H](O)[C@@H](O)C[C@]4(C)[C@H]3[C@H](O)C[C@]12C` [compound 8, ajugasterone C], the Kd/EC50 entry in data set [2] is given as “very low”.
